Measured values: patent US20080167330A1, “Carbamoylsulphoximides as protein kinase inhibitors” (priority 2006, published 2008)

Assays:
Type in all cases: biochemical
[1] = molecular target: T1, KDR (VEGFR2) (Homo sapiens, UniProt P35968); assay: KDR kinase assay; conditions: 8 μM ATP
T1 construct: GST; purchased ProQinase GmbH, Freiburg; host or cells: baculovirus-infected insect cells (Sf9)
Procedure: Recombinant KDR kinase-GST fusion proteins purified from baculovirus-infected insect cells (Sf9), were purchased from ProQinase GmbH, Freiburg. Poly(Glu4Tyr)n, which was used as kinase substrate, was purchased from Sigma.
KDR kinase was incubated in the presence of various concentrations of test substances (0 μM, and within the range 0.01-100 μM) in 40 μL of assay buffer [40 mM Tris/HCl pH 7.5, 10 mM MgCl2, 1 mM MnCl2, 1.0 mM dithiothreitol, 8 μM ATP, 0.025% PEG20000, 24 ng/μL poly(Glu4Tyr)n, 0.2 μCi/measurement point ^33P-gamma ATP, 1.25% dimethyl sulphoxide] at 22° C. for 10 min. The reaction was stopped by adding EDTA solution (250 mM, pH 7.5, 15 μl/measurement point). 15 μl of each reaction mixture were loaded onto P30 filter strips (from Wallac), and non-incorporated ^33P-ATP was removed by washing the filter strips three times in 0.5% strength phosphoric acid for 10 min each time.
After the filter strips had been dried at 70° C. for 1 hour, the filter strips were covered with scintillator strips (MeltiLex™ A, from Wallac) and baked at 90° C. for 1 hour. The amount of incorporated ^33P (substrate phosphorylation) was determined by scintillation measurement in a gamma radiation counter (Wallac).
(§1) The measured data were normalized to 0% inhibition (enzyme reaction without inhibitor) and 100% inhibition (all assay components except enzyme). The IC50 values were determined by means of a 4-parameter fit using the company's own software.

[2] = molecular target: T2, CDK1/CycB (Homo sapiens, UniProt P06493); assay: CDK1/CycB kinase assay; conditions: 0.5 μM ATP
T2 construct: GST; purchased ProQinase GmbH, Freiburg; host or cells: baculovirus-infected insect cells (Sf9)
T2 sequence (P06493 whole entry): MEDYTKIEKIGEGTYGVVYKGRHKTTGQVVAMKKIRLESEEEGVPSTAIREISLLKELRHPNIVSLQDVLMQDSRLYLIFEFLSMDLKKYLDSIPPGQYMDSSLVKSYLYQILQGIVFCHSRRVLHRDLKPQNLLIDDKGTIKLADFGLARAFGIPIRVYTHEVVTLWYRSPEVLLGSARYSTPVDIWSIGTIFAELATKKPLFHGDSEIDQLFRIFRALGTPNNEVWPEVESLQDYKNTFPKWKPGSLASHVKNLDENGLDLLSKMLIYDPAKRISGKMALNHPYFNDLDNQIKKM
T2 sequence (P14635 whole entry partner): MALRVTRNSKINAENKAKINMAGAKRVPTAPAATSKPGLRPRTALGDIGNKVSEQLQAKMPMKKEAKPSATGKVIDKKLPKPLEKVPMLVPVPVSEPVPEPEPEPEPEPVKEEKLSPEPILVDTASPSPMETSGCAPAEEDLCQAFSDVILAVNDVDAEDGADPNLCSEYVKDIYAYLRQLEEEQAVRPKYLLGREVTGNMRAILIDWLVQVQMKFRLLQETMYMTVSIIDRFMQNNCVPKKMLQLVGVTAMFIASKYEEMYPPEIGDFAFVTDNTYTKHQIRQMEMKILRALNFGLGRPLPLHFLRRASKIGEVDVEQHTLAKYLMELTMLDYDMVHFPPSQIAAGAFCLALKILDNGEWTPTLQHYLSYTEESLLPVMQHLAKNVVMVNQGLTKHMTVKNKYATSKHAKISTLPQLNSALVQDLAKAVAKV
Procedure: Recombinant CDK1- and CycB-GST fusion proteins, purified from baculovirus-infected insect cells (Sf9), were purchased from ProQinase GmbH, Freiburg. The histone IIIS used as kinase substrate can be purchased from Sigma.
CDK1/CycB (5 ng/μL) was incubated in the presence of various concentrations of test substances (0 μM, and within the range 0.01-100 μM) in 40 μL of assay buffer [50 mM Tris/HCl pH 8.0, 10 mM MgCl2, 0.1 mM Na ortho-vanadate, 1.0 mM dithiothreitol, 0.025% PEG 20000, 0.5 μM ATP, 10 μM histone IIIS, 0.2 μCi/measurement point ^33P-gamma ATP, 0.05% NP40, 1.25% dimethyl sulphoxide] at 22° C. for 10 min. The reaction was stopped by adding EDTA solution (250 mM, pH 8.0, 15 μl/measurement point). 15 μl of each reaction mixture were loaded onto P30 filter strips (from Wallac), and non-incorporated ^33P-ATP was removed by washing the filter strips three times in 0.5% strength phosphoric acid for 10 min each time. After the filter strips had been dried at 70° C. for 1 hour, the filter strips were covered with scintillator strips (MeltiLex™ A, from Wallac) and baked at 90° C. for 1 hour. The amount of incorporated ^33P (substrate phosphorylation) was determined by scintillation measurement in a gamma radiation counter (Wallac).
as §1

[3] = molecular target: T3, human Aurora-C (Homo sapiens, UniProt Q9UQB9); assay: Aurora-C kinase assay (HTRF); conditions: 10 μM ATP
T3 construct: GST; made in house; host or cells: transiently transfected HEK293 cells
T3 sequence (Q9UQB9 1-309): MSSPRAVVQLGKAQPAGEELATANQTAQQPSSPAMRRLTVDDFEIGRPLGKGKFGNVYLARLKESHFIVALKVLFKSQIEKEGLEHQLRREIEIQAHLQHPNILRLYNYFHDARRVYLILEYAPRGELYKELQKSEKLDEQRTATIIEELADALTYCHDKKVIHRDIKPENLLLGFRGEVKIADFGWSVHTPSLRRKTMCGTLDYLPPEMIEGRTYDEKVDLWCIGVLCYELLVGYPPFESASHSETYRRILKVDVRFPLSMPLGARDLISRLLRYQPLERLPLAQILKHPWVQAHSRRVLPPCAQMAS
Procedure: The Aurora-C inhibitory activity of the substances of this invention was measured in the Aurora-C-HTRF assay (HTRF=Homogeneous Time Resolved Fluorescence) described in the following paragraphs.
Recombinant fusion protein of GST and human Aurora-C was expressed in transiently transfected HEK293 cells and purified by affinity chromatography on glutathione-Sepharose. The substrate used for the kinase reaction was the biotinylated peptide biotin-Ttds-FMRLRRLSTKYRT (C terminus in amide form) which can be purchased for example from JERINI Peptide Technologies (Berlin). Aurora-C was incubated in the presence of various concentrations of test substances in 5 μL of assay buffer [25 mM Hepes/NaOH pH 7.4, 0.5 mM MnCl2, 2.0 mM dithiothreitol, 0.1 mM sodium orthovanadate, 10 μM adenosine triphosphate (ATP), […] substrate, 0.01% (v/v) TritonX-100 (Sigma), 0.05% (w/v) bovine serum albumin (BSA), 1% (v/v) dimethyl sulphoxide] at 22° C. for 60 min. The concentration of Aurora-C was adapted to the particular activity of the enzyme and adjusted so that the assay operated in the linear range. Typical concentrations were in the region of 0.3 nM. The reaction was stopped by adding 5 μl of a solution of HTRF detection reagents (0.2 μM streptavidin-XLent and 1.4 nM anti-phospho-(Ser/Thr)-Akt substrate-Eu-cryptate (Cis biointernational, France, product No. 61P02KAE), a Europium-cryptate-labelled phospho-(Ser/Thr)-Akt substrate antibody [product #9611B, Cell Signaling Technology, Danvers, Mass., USA]) in aqueous EDTA solution (40 mM EDTA, 400 mM KF, 0.05% (w/v) bovine serum albumin (BSA) in 25 mM HEPES/NaOH pH 7.0).
The resulting mixture was incubated at 22° C. for 1 h in order to allow formation of a complex of the biotinylated phosphorylated substrate and the detection reagents. The amount of phosphorylated substrate was then estimated by measuring the resonance energy transfer from the anti-phospho-(Ser/Thr)-Akt substrate-Eu cryptate to the streptavidin-XLent. For this purpose, the fluorescence emissions at 620 nm and 665 nm after excitation at 350 nm were measured in an HTRF measuring instrument, e.g. a Rubystar (BMG Labtechnologies, Offenburg, Germany) or a Viewlux (Perkin-Elmer). The ratio of the emissions at 665 nm and at 622 nm was taken as a measure of the amount of phosphorylated substrate. The data were normalized (enzymic reaction without inhibitor=0% inhibition, all other assay components but no enzyme=100% inhibition) and IC50 values were calculated with a 4-parameter fit using an inhouse software.

T1 sequence (P35968 807-1356 limits assumed): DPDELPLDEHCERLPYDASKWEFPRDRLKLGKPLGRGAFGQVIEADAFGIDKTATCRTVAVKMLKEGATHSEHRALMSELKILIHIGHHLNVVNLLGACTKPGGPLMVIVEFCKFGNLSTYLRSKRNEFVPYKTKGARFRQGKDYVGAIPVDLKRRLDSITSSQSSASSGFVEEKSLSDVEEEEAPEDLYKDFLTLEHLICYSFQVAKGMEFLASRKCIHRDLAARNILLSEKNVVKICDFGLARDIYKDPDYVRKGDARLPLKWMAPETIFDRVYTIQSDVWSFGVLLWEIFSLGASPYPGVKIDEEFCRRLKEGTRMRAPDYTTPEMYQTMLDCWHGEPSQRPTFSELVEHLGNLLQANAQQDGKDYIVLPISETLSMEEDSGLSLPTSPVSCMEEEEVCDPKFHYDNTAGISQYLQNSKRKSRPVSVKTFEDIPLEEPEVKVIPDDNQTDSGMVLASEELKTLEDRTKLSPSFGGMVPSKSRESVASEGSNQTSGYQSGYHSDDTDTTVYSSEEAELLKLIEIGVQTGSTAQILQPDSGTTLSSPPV

Row | IC50 [1] | IC50 [2] | IC50 [3] | Structure (SMILES)
1 | 230 nM | 21 nM | 400 nM | C[C@@H](Nc1nc(Nc2ccc(NC(=O)N=S(C)(C)=O)cc2)ncc1Br)C(C)(C)O [Example 2, N-({4-[(5-Bromo-4-{[(R)-2-hydroxy-1,2-dimethylpropyl]amino}pyrimidin-2-yl)-amino]phenyl}carbamoyl)-S,S-dimethylsulphoximide]
2 | 160 nM | 5 nM | 420 nM | C[C@@H](O)[C@@H](C)Oc1nc(Nc2ccc(NC(=O)N=S(C)(C)=O)cc2)ncc1Br [Example 4, N-({4-[(5-Bromo-4-{[(1R,2R)-2-hydroxy-1-methylpropyl]oxy}pyrimidin-2-yl)amino]phenyl}carbamoyl)-S,S-dimethylsulphoximide]
3 | 120 nM | 42 nM | 740 nM | C[C@@H](Nc1nc(Nc2ccc(C(=O)N=S(C)(C)=O)cc2)ncc1Br)C(C)(C)O [Example 19, N-{4-[(5-Bromo-4-{[(R)-2-hydroxy-1,2-dimethylpropyl]amino}pyrimidin-2-yl)amino]benzoyl}S,S-dimethylsulphoximide]
4 | 300 nM | 10 nM | 370 nM | C[C@@H](O)[C@@H](C)Nc1nc(Nc2ccc(F)c(NC(=O)N=S(C)(C)=O)c2)ncc1Br [Example 7, N-({5-[(5-Bromo-4-{[(1R,2R)-2-hydroxy-1-methylpropyl]amino}pyrimidin-2-yl)amino]-2-fluorophenyl}carbamoyl)-S,S-dimethylsulphoximide]
5 | 61 nM | 18 nM | 280 nM | C[C@@H](O)[C@@H](C)Nc1nc(Nc2ccc(C(=O)N=S(C)(C)=O)cc2)ncc1Br [Example 18, N-{4-[(5-Bromo-4-{[(1R,2R)-2-hydroxy-1-methylpropyl]amino}pyrimidin-2-yl)amino]benzoyl}-S,S-dimethylsulphoximide]
6 | 130 nM | 7 nM | 73 nM | C[C@@H](O)[C@@H](C)Oc1nc(Nc2cccc(NC(=O)N=S(C)(C)=O)c2)ncc1Br [Example 6, N-({3-[(5-Bromo-4-{[(1R,2R)-2-hydroxy-1-methylpropyl]oxy}pyrimidin-2-yl)amino]phenyl}carbamoyl)-S,S-dimethylsulphoximide]
7 | 63 nM | 10 nM | 54 nM | C[C@@H](O)[C@@H](C)Nc1nc(Nc2cccc(NC(=O)N=S(C)(C)=O)c2)ncc1Br [Example 5, N-({3-[(5-Bromo-4-{[(1R,2R)-2-hydroxy-1-methylpropyl]amino}pyrimidin-2-yl)amino]phenyl}carbamoyl)-S,S-dimethylsulphoximide]
8 | 130 nM | 21 nM | 810 nM | Cc1ccc(Nc2ncc(Br)c(N[C@H](C)[C@@H](C)O)n2)cc1NC(=O)N=S(C)(C)=O [Example 8, N-({5-[(5-Bromo-4-{[(1R,2R)-2-hydroxy-1-methylpropyl]amino}pyrimidin-2-yl)amino]-2-methylphenyl}carbamoyl)-S,S-dimethylsulphoximide]
9 | 1100 nM | 15 nM | 150 nM | C[C@@H](O)[C@@H](C)Nc1nc(Nc2ccc(NC(=O)N=S(C)(C)=O)cc2)ncc1C(F)(F)F [Example 15]
10 | 320 nM | 26 nM | 410 nM | COc1ccc(Nc2ncc(Br)c(N[C@H](C)[C@@H](C)O)n2)cc1NC(=O)N=S(C)(C)=O [Example 10, N-({5-[(5-Bromo-4-{[(1R,2R)-2-hydroxy-1-methylpropyl]amino}pyrimidin-2-yl)amino]-2-methoxyphenyl}carbamoyl)-S,S-dimethylsulphoximide]
11 | 350 nM | 18 nM | 1300 nM | C[C@@H](O)[C@@H](C)Nc1nc(Nc2ccc(Cl)c(NC(=O)N=S(C)(C)=O)c2)ncc1Br [Example 12, N-({5-[(5-Bromo-4-{[(1R,2R)-2-hydroxy-1-methylpropyl]amino}pyrimidin-2-yl)amino]-2-chlorophenyl}carbamoyl)-S,S-dimethylsulphoximide]
12 | 64 nM | 140 nM | 400 nM | CS(C)(=O)=NC(=O)Nc1ccc(Nc2ncc(Br)c(Nc3ccc4[nH]cnc4c3)n2)cc1 [Example 16, N-[(4-{[4-(1H-Benzimidazol-5-ylamino)-5-bromopyrimidin-2-yl]amino}phenyl)-carbamoyl]-S,S-dimethylsulphoximide]
13 | 170 nM | 24 nM | 160 nM | C[C@@H](Nc1nc(Nc2cccc(NC(=O)N=S(C)(C)=O)c2)ncc1Br)C(C)(C)O [Example 1, N-({3-[(5-Bromo-4-{[(R)-2-hydroxy-1,2-dimethylpropyl]amino}pyrimidin-2-yl)amino]phenyl}carbamoyl)-S,S-dimethylsulphoximide]
14 | 96 nM | 17 nM | 310 nM | C[C@@H](O)[C@@H](C)Oc1nc(Nc2ccc(C(=O)N=S(C)(C)=O)cc2)ncc1Br [Example 20, N-{4-[(5-Bromo-4-{[(1R,2R)-2-hydroxy-1-methylpropyl]oxy}pyrimidin-2-yl)amino]benzoyl}-S,S-dimethylsulphoximide]
15 | 96 nM | 46 nM | 430 nM | COc1cc(Nc2ncc(Br)c(N[C@H](C)[C@@H](C)O)n2)ccc1NC(=O)N=S(C)(C)=O [Example 11, N-({4-[(5-Bromo-4{[(1R,2R)-2-hydroxy-1-methylpropyl]amino}pyrimidin-2-yl)amino]-2-methoxyphenyl}carbamoyl)-S,S-dimethylsulphoximide]
16 | 120 nM | 7 nM | 280 nM | C[C@@H](O)[C@@H](C)Nc1nc(Nc2ccc(NC(=O)N=S(C)(C)=O)cc2)ncc1Br [Example 3, N-({4-[(5-Bromo-4-{[(1R,2R)-2-hydroxy-1-methylpropyl]amino}pyrimidin-2-yl)amino]phenyl}carbamoyl)-S,S-dimethylsulphoximide]
